# Tests used:
# IP3 receptor = details: Gafni et al., 1997; cited from earlier work
# NF-κB [1] = assay: Cell-free EMSA of NF-κB binding activity in brain cortex cytoplasmic fraction; format: biochemical, rat; details: 1 h; calcium 1 μM to 10 mM; 10 μM BAPTA-AM alone or with 10 μM calcium
# Protocol: (§1) Total cell extracts were prepared as described (Baeuerle and Baltimore, 1988, Cell 53:211-217). Briefly, cells were harvested, washed twice with ice-cold PBS and lysed for 30 min at 4° C. in Totex buffer (20 mM HEPES, pH 7.9, 350 mM NaC1, 20% glycerol, 1% NP-40, 1 mM MgC12, 0.5 mM EDTA, 0.1 mM EGTA, 5 mM DTT, 0.1% PMSF, 1% aprotinin, 4 μg/ml leupeptin). Samples were centrifuged at 14,000× g for 10 min and aliquots of supernatant were collected and stored at −70° C. until taken for assay. The protein content of the extract (supernatant) was measured by Bradford method (BIO-RAD Laboratories, Ercules, Calif., USA). […]
# (§2) After 20 min at room temperature, reaction products were separated on a 7% non-denaturing polyacrylamide gel. […] Radioactivity of dried gels was detected by exposure to Kodak X-Omat film and images on the developed film were scanned into a computer using a UMAX 1200s scanner. […]
# [2] = tested on: IP3 receptors on microsomes; assay: Microsome extract (MSE) effect on cytoplasmic NF-κB binding activity; format: biochemical, rat; details: direct activation of IP3 receptors on microsomes with IP3
# Protocol: Cerebral cortices from adult female Sprague-Dawley rats were homogenized (20 strokes at 300 rpm) with a Teflon homogenizer in ice-cold buffer containing 1 mM EDTA, 0.32 M sucrose, 0.1 mM dithiothreitol and 1 mM HEPES as described previously (Chen et al., 1998, Diabetes 47:874-81) and cytoplasmic and microsome fractions were isolated by differential centrifugation. Briefly, tissue fragments and cellular debris were removed by centrifugation at 500 g for 10 min and supernatants were centrifuged at 20,000 g for 20 min to pellet intact mitochondria and nuclei. The supernatant was then centrifuged at 100,000 g for 1 h in order to obtain the cytoplasmic fraction and the microsomal pellet enriched in endoplasmic reticulum and golgi membranes. Microsome extracts (MSE) were prepared by suspending microsomes in 1:100 v/v ice-cold buffer and centrifuging at 100,000× g for 1 hr. Microsomes were then re-suspended in 1:2 v/v volume buffer and treated as described below. At the end of the treatment, the suspension was centrifuged at 100,000 g for 1 h, and supernatants were used as MSE. For experiments involving incubation of MSE with cytoplasmic extract, 3 μl of MSE were added to 10 μl cytoplasmic extract and mixtures were incubated at room temperature for 1 h.
# […] After 1 h at room temperature, samples were examined for NF-κB binding activity.
# Indeed, the role calcium plays in this paradigm seems to be as an intraluminal signal.
# NF-κB [3] = assay: EMSA of NF-κB binding activity in cultured primary cortical neurons; format: cell-based, rat; details: 6 h; for induction of NF-κB binding activity by the agent alone: cortical neurons, 100 ng/ml TNFα, 100 nM Tg or 20 μM glutamate
# Protocol: Cerebral cortices were removed from embryonic day 18 Sprague-Dawley rats (Harlan, Indianapolis, Ind.). Cells were dissociated as described previously (Mattson et al., 1995, J. Neurochem. 65:1740-1751.) and were seeded into polyethyleneimine-coated 60 mm culture dishes containing Eagle's Minimum Essential Medium supplemented with 26 mM NaHCO3, 40 mM glucose, 20 mM KCl, 1 mM sodium pyruvate, 10% (v/v) heat-inactivated fetal bovine serum (Sigma, St. Louis, Mo.), and 0.001% gentamycin sulfate. After a 3-5 h incubation period to allow for cell attachment, the medium was replaced with 2 ml of Neurobasal Medium with B27 supplements (GIBCO Life Technologies, Grand Island, N.Y.). […] Experimental treatments were performed on 7-to-9-day-old neuronal cultures in which there were approximately 5% contaminating glial cells.
# Total cell extracts were prepared as described (Baeuerle and Baltimore, 1988, Cell 53:211-217). Briefly, cells were harvested, washed twice with ice-cold PBS and lysed for 30 min at 4° C. in Totex buffer (20 mM HEPES, pH 7.9, 350 mM NaC1, 20% glycerol, 1% NP-40, 1 mM MgC12, 0.5 mM EDTA, 0.1 mM EGTA, 5 mM DTT, 0.1% PMSF, 1% aprotinin, 4 μg/ml leupeptin). Samples were centrifuged at 14,000× g for 10 min and aliquots of supernatant were collected and stored at −70° C. until taken for assay. The protein content of the extract (supernatant) was measured by Bradford method (BIO-RAD Laboratories, Ercules, Calif., USA).
# After 20 min at room temperature, reaction products were separated on a 7% non-denaturing polyacrylamide gel. Competition experiments were performed by incubating extracts with labeled oligonucleotide probe in the presence of 100-fold molar excess unlabeled NF-KB or CREB oligonucleotide. To characterize the NF-KB complexes, supershift assays were performed. Extracts were preincubated for 45 min at room temperature with antibodies recognizing either p50 or p65 sub-units of NF-κB (Santa Cruz Biotechnology, Santa Cruz, Calif.) or c-Fos (Oncogene Research Products, Cambridge, Mass.). The mixtures were further incubated with ^32P-labeled probe and resolved as described above. Radioactivity of dried gels was detected by exposure to Kodak X-Omat film and images on the developed film were scanned into a computer using a UMAX 1200s scanner. Densitometry was performed using Scion Image software (Scion Inc., Frederick, Md.). Paint Shop Pro software (JASC Inc. Minneapolis, Minn.) was used for preparation of the final figures.
# (§3) The possible involvement of endoplasmic reticulum pools of intracellular calcium regulated by IP3 receptors in controlling basal levels of NF-κB was investigated using Xestospongin C (XeC) a specific membrane permeable modulator of IP3-mediated Ca^2+release (Gafni et al., 1997, Neuron 19:723-733; Hu et al., 1999, J. Biol. Chem. 274:33995-33998), and thapsigargin (Tg), a specific inhibitor of ER calcium/ATPase (Thastrup et al., 1990, Proc. Natl. Acad. Sci. USA 87:2466-2470; Davidson and Varhol, 1995, J. Biol. Chem. 270:11731-11734.). Cultured primary cortical neurons were treated with either 1 μM XeC, 100 nM Tg or vehicle for 6 h and protein extracts were analyzed for NF-κB binding activity by EMSA electrophoresis.
# CREB [4] = assay: EMSA of CREB binding activity in cultured primary cortical neurons; format: cell-based, rat
# Protocol: Cerebral cortices were removed from embryonic day 18 Sprague-Dawley rats (Harlan, Indianapolis, Ind.). Cells were dissociated as described previously (Mattson et al., 1995, J. Neurochem. 65:1740-1751.) and were seeded into polyethyleneimine-coated 60 mm culture dishes containing Eagle's Minimum Essential Medium supplemented with 26 mM NaHCO3, 40 mM glucose, 20 mM KCl, 1 mM sodium pyruvate, 10% (v/v) heat-inactivated fetal bovine serum (Sigma, St. Louis, Mo.), and 0.001% gentamycin sulfate. After a 3-5 h incubation period to allow for cell attachment, the medium was replaced with 2 ml of Neurobasal Medium with B27 supplements (GIBCO Life Technologies, Grand Island, N.Y.). Previous observations have shown that greater than 80% of the cells that attach in the first few hours after plating will survive longer than 7 days in Neurobasal Medium with no additional neurotrophic factors. Experimental treatments were performed on 7-to-9-day-old neuronal cultures in which there were approximately 5% contaminating glial cells.
# as §1, §2, §3
# CREB [5] = assay: Cell-free EMSA of CREB binding activity in brain cortex cytoplasmic fraction; format: biochemical, rat; details: calcium 10 μM, 100 μM and 1 mM, 1 h
# Protocol: as §1, §2
molecule,measurement,setting,value
"C1CCC[C@H]2CCCN3CC[C@H](CCCCCC[C@H]4CCCN5CC[C@H](CC1)O[C@H]45)O[C@H]23 [ArB, Araguspongine B]",block of IP3-mediated calcium release,IP3 receptor,potent blockers
CC(=O)OCOC(=O)CN(CC(=O)OCOC(C)=O)c1ccccc1OCCOc1ccccc1N(CC(=O)OCOC(C)=O)CC(=O)OCOC(C)=O [BAPTA-AM],NF-κB binding activity in cytoplasmic fraction,NF-κB [1],had no affect
"O[C@@]12CCCCCC[C@H]3CCN4CCC[C@@H](CCCCCC[C@H]5CCN(CCC1)[C@@H]2O5)[C@H]4O3 [DMXeB, demethylxestospongin B]",block of IP3-mediated calcium release,IP3 receptor,potent blockers
"O=P(O)(O)O[C@@H]1[C@H](O)[C@H](O)[C@@H](OP(=O)(O)O)[C@H](OP(=O)(O)O)[C@H]1O [IP3, inositol-1,4,5 triphosphate, reference compound]",NF-κB stimulating properties of MSE from treated microsomes,[2],NF-κB stimulating properties similar to that seen with Tg
"C/C=C(/C)C(=O)O[C@H]1C(C)=C2[C@H]([C@@H]1OC(=O)CCCCCCC)[C@@](C)(OC(C)=O)C[C@H](OC(=O)CCC)[C@@]1(O)[C@H]2OC(=O)[C@@]1(C)O [Tg, thapsigargin, reference compound]",induction of NF-κB binding activity by the agent alone,NF-κB [3],Induction of NF-κB binding activity was observed
same,basal NF-κB binding activity relative to control levels,"NF-κB [3]; cultured primary cortical neurons, 1 μM XeC or 100 nM Tg, EMSA",statistically significant (p<0.05) elevation
same,CREB binding activity,"CREB [4]; cultured primary cortical neurons, 6 h, 1 μM XeC or 100 nM Tg, data not shown","slightly augmented CREB binding activity; however, this was not statistically significant"
O[C@@]12CCCCCC[C@H]3CCN4CCC[C@H](CCCCCC[C@H]5CCN(CCC1)[C@@H]2O5)[C@H]4O3 [XeD],block of IP3-mediated calcium release,IP3 receptor,potent blockers
[Ca+2] [calcium],CREB binding activity in cytoplasmic fraction,CREB [5],greatly enhanced
same,NF-κB binding activity in cytoplasmic fraction,NF-κB [1],none of the calcium concentrations used increased NF-κB binding activity
"tumor necrosis factor α [TNFα, reference compound]",induction of NF-κB binding activity by the agent alone,NF-κB [3],statistically significant (p<0.05) enhancement
same,"binding activity of CREB, agent alone","CREB [4]; cortical neurons, XeC 30 min pretreatment, 100 ng/ml TNFα 6 h, FIG. 2a",neither TNFα nor XeC alone affected the binding activity of CREB

# — patent publication US20020107193A1, “Therapeutic uses for IP3 receptor-mediated calcium channel modulators” (priority 2000, published 2002)
